Reference: US5780431A, “Pharmaceutical formulations of corticotropin releasing factor having improved stability in liquid form” (Neurobiological Technologies, Inc., priority 1996, dated 1998)
≈ marks a conversion by molar mass, not a printed value. Where “and” joins values, the source holds several entries; their conditions need not be identical. Identical values can stand only once. Like-named read-outs stand apart in the source and are kept apart here.

Tests used:
[1] = Solubility of CRF in various buffer solutions; assay type: physicochemical; conditions: for solubility: read-out: CRF solubility (gross weight)
Protocol: (§1) In an effort to develop liquid formulations of CRF useful for commercial pharmaceutical purposes, experiments designed to measure the solubility of CRF in a variety of different buffer solutions were carried out. Specifically, CRF was added in increasing amounts to a variety of different buffer solutions at various different concentrations and pH's, either in the presence or absence of other excipient additives and the solubility of the CRF product was determined. Table 1 summarizes the results of these experiments measuring the solubility of CRF in various phosphate, citrate and acetate buffers, either in the presence or absence of various excipients such as NaCl and mannitol. CRF solubility is expressed in gross weight of CRF in mg/ml of solution.

[2] = Solubility of CRF in various non-volatile buffer solutions; assay type: physicochemical
Protocol: as §1
Next, because it is known that certain buffers may be volatilized when lyophilized, further experiments were conducted as described above to examine the solubility of CRF in various other non-volatile buffer solutions.

CC[C@H](C)[C@H](NC(=O)[C@@H](NC(=O)[C@H](CCC(=O)O)NC(=O)[C@H](CCSC)NC(=O)[C@H](CC(C)C)NC(=O)[C@H](CCCCN)NC(=O)[C@H](CCCNC(=N)N)NC(=O)[C@H](CC(N)=O)NC(=O)[C@H](CO)NC(=O)[C@H](Cc1c[nH]cn1)NC(=O)[C@H](C)NC(=O)[C@H](CCC(N)=O)NC(=O)[C@H](CCC(N)=O)NC(=O)[C@H](C)NC(=O)[C@H](CC(C)C)NC(=O)[C@H](CCC(N)=O)NC(=O)[C@H](CCC(=O)O)NC(=O)[C@H](C)NC(=O)[C@H](CCCNC(=N)N)NC(=O)[C@H](C)NC(=O)[C@H](CCSC)NC(=O)[C@H](CCC(=O)O)NC(=O)[C@H](CC(C)C)NC(=O)[C@@H](NC(=O)[C@H](CCC(=O)O)NC(=O)[C@H](CCCNC(=N)N)NC(=O)[C@H](CC(C)C)NC(=O)[C@H](CC(C)C)NC(=O)[C@H](Cc1c[nH]cn1)NC(=O)[C@H](Cc1ccccc1)NC(=O)[C@@H](NC(=O)[C@H](CC(C)C)NC(=O)[C@H](CC(=O)O)NC(=O)[C@H](CC(C)C)NC(=O)[C@H](CO)NC(=O)[C@@H](NC(=O)[C@@H]1CCCN1C(=O)[C@@H]1CCCN1C(=O)[C@H](CCC(=O)O)NC(=O)[C@H](CCC(=O)O)NC(=O)[C@@H](N)CO)[C@@H](C)CC)[C@@H](C)O)C(C)C)[C@@H](C)CC)C(N)=O [CRF]
CRF solubility ([1]; acetate buffer between pH 4 and 5 without added NaCl): very soluble
CRF solubility ([1]; citrate buffer between pH 4 and 6): < 0.2 mg/mL
solubility ([1]; citrate buffer, pH 4, aqueous buffer, pH 4.0, 25 mM Citrate, 150 mM NaCl): 20 µg/mL (≈ 4.2 µM)
solubility ([1]; citrate buffer, pH 4, aqueous buffer, pH 4.0, 25 mM Citrate): 40 µg/mL (≈ 8.41 µM)
solubility ([1]; citrate buffer, pH 5.1, aqueous buffer, pH 5.1, 25 mM Citrate, 150 mM NaCl): 10 µg/mL (≈ 2.1 µM)
solubility ([1]; citrate buffer, pH 5.1, aqueous buffer, pH 5.1, 25 mM Citrate): 20 µg/mL (≈ 4.2 µM)
CRF solubility (gross weight) ([1]; pH 2.0, 10 mM PO4, 138 mM NaCl): 50 mg/mL
CRF solubility (gross weight) ([1]; pH 4.08, 5 mM Citrate): 0.2 mg/mL
CRF solubility (gross weight) ([1]; pH 4.08, 5 mM Citrate, 150 mM NaCl): 0.16 mg/mL
CRF solubility (gross weight) ([1]; pH 4.2, 5 mM HOAC, 150 mM NaCl): 1.17 mg/mL
CRF solubility (gross weight) ([1]; pH 4.2, 25 mM HOAc): 29 mg/mL
CRF solubility (gross weight) ([1]; pH 4.26, 20 mM HOAc, 5% mannitol): 14.5 mg/mL
CRF solubility (gross weight) ([1]; pH 4.34, 20 mM HOAc, 5% mannitol): 11.2 mg/mL
CRF solubility (gross weight) ([1]; pH 4.4, 5 mM HOAC): 33 mg/mL
CRF solubility (gross weight) ([1]; pH 4.45, 20 mM HOAc, 5% mannitol): 13.8 mg/mL
CRF solubility (gross weight) ([1]; pH 4.49, 25 mM HOAc): 5.34 mg/mL
CRF solubility (gross weight) ([1]; pH 4.49, 25 mM HOAc, 150 mM NaCl): 0.28 mg/mL
CRF solubility (gross weight) ([1]; pH 4.52, 20 mM HOAc, 5% mannitol): 12.5 mg/mL
CRF solubility (gross weight) ([1]; pH 4.6, 5 mM HOAC, 5% mannitol): 2.2 mg/mL
CRF solubility (gross weight) ([1]; pH 4.7, 5 mM HOAC, 1% mannitol): 1.96 mg/mL
CRF solubility (gross weight) ([1]; pH 4.72, 5 mM HOAC, 1% Tween): 1.97 mg/mL
CRF solubility (gross weight) ([1]; pH 4.73, 20 mM HOAc, 5% mannitol): 1.53 mg/mL
CRF solubility (gross weight) ([1]; pH 4.81, 5 mM HOAC): 1.13 mg/mL
CRF solubility (gross weight) ([1]; pH 4.9, 25 mM HOAc): 0.37 mg/mL
CRF solubility (gross weight) ([1]; pH 4.9, 25 mM HOAc, 150 mM NaCl): 0.14 mg/mL
CRF solubility (gross weight) ([1]; pH 4.92, 5 mM Citrate): 0.03 mg/mL
CRF solubility (gross weight) ([1]; pH 4.92, 5 mM Citrate, 150 mM NaCl): 0.01 mg/mL
CRF solubility (gross weight) ([1]; pH 4.94, 20 mM HOAc, 5% mannitol): 0.07 mg/mL
CRF solubility (gross weight) ([1]; pH 5.0, 5 mM HOAC): 0.13 mg/mL
CRF solubility (gross weight) ([1]; pH 5.23, 20 mM HOAc, 5% mannitol): 0.04 mg/mL
CRF solubility (gross weight) ([1]; pH 5.84, 5 mM Citrate): 0.04 mg/mL
CRF solubility (gross weight) ([1]; pH 5.84, 5 mM Citrate, 150 mM NaCl): 0.02 mg/mL
CRF solubility (gross weight) ([1]; pH 6.0, 5 mM HOAC): 0.03 mg/mL
CRF solubility (gross weight) ([1]; pH 6.1, 25 mM Citrate): 0.1 mg/mL
CRF solubility (gross weight) ([1]; pH 6.1, 25 mM Citrate, 150 mM NaCl): 0.07 mg/mL
CRF solubility (gross weight) ([1]; pH 6.24, 25 mM HOAc): 0.09 mg/mL
CRF solubility (gross weight) ([1]; pH 6.24, 25 mM HOAc, 150 mM NaCl): 0.05 mg/mL
CRF solubility (gross weight) ([1]; pH 7.1, 10 mM PO4, 138 mM NaCl): 0.48 mg/mL and 0.84 mg/mL
CRF solubility ([1]; phosphate buffer between pH 2 and 3.6): very soluble
solubility ([1]; phosphate buffer, pH 3.6, aqueous buffer, pH 3.6, 10 mM PO4, 138 mM NaCl): 2640 µg/mL (≈ 555 µM)
solubility ([1]; phosphate buffer, pH 4.2, aqueous buffer, pH 4.2, 10 mM PO4, 138 mM NaCl): 290 µg/mL (≈ 61 µM)
solubility ([1]; phosphate buffer, pH 4.5, aqueous buffer, pH 4.5, 10 mM PO4, 138 mM NaCl): 620 µg/mL (≈ 130 µM)
solubility ([1]; phosphate buffer, pH 5.6, aqueous buffer, pH 5.6, 10 mM PO4, 138 mM NaCl): 310 µg/mL (≈ 65.2 µM)
solubility ([1]; phosphate buffer, pH 6.02, aqueous buffer, pH 6.02, 5 mM PO4): 80 µg/mL (≈ 16.8 µM)
solubility ([1]; phosphate buffer, pH 6.7, aqueous buffer, pH 6.7, 10 mM PO4, 138 mM NaCl): 520 µg/mL (≈ 109 µM)
solubility ([1]; phosphate buffer, pH 6.96, aqueous buffer, pH 6.96, 5 mM PO4): 470 µg/mL (≈ 98.8 µM)
solubility ([1]; phosphate buffer, pH 7.32, aqueous buffer, pH 7.32, 20 mM PO4): 1460 µg/mL (≈ 307 µM)
solubility ([1]; phosphate buffer, pH 7.7, aqueous buffer, pH 7.7, 5 mM PO4): 460 µg/mL (≈ 96.7 µM)
CRF solubility ([2]; 10 mM Phosphate, pH 7.3): 3.0 net mg/ml
CRF solubility ([2]; 10 mM Phosphate, pH 7.3 + 25 mM ascorbate): 1.2 net mg/ml
CRF solubility ([2]; 10 mM Phosphate, pH 7.3 + 0.25% arginine): 2.0 net mg/ml
CRF solubility ([2]; 10 mM Phosphate, pH 7.3 + 0.25% glycine): 2.2 net mg/ml
CRF solubility ([2]; 25 mM Ascorbic, pH 4.0): 4.5 net mg/ml
CRF solubility ([2]; 25 mM Lactic, pH 4.0): 1.9 net mg/ml
CRF solubility ([2]; 25 mM Succinic, pH 4.0): 4.2 net mg/ml
CRF solubility ([2]; 25 mM Tartaric, pH 4.0): 0.2 net mg/ml
CRF solubility ([2]; ascorbic, lactic, succinic and phosphate buffers tested): extremely soluble
